Measured values published in US6423737B1, “Benzamidoxime prodrugs as antipneumocystic agents” (The University of North Carolina at Chapel Hill, priority 1995, dated 2002).
Entries after “also recorded” stand apart in the source; their conditions may differ.

Tests used:
[1] = Acute toxicity of single doses in normal rats; assay type: in vivo; settings: normal rats; for time after injection to recovery / persistence of symptoms: single IV 20 μmol/kg; for relative acute toxicity among the diamidines: single IV injection
[2] = test system: Pneumocystis carinii; assay: Anti-P. carinii activity in immunosuppressed rat model (lung cyst counts); assay type: in vivo, Sprague-Dawley rats; settings: for anti-P. carinii activity when given orally (in words): Formula I series, orally by gavage once daily for 14 days; for activity on oral administration, furan series (in words): orally by gavage; for % saline, ORAL DOSING: oral by gavage daily for 14 days @33 μmol/kg body weight; for % saline, IV DOSING: tail vein injection daily for 14 days at 22 mg/kg body weight
Description: The activity of the compounds of Formula I against P. carinii was carried out according to an established method. See Tidwell, R. R., et al., J. Protozool. […] Agents Chemother. […] Agents Chemother. […] Briefly, male Sprague-Dawley rats (barrier raised, not certified virus-free) weighing 150-200 g each, were obtained (Hilltop Laboratories, Scottsdale, Pa.). Immediately upon arrival, the animals were caged individually and begun on a low protein (8%) diet and on drinking water containing tetracycline (0.5 mg/mL) and dexamethasone (1.0 μ/mL). This regimen was continued for eight weeks. At the beginning of the seventh week, animals were divided into groups of 8 or more, and the test compounds were administered for 14 days. Saline and pentamidine-treated groups were included as controls.
Animals were sacrificed at the end of the eighth week by chloroform inhalation. The left lung was weighed, ground through a No. 60 wire mesh screen, and suspended 1:10 (wt/vol) in 10 mM β-mercaptoethanol-Hanks' balanced salts solution (HBSS) without cations. Slides were prepared by spotting 5 μL of lung homogenate diluted 1:10 in HBSS with β-mercaptoethanol and allowed to air dry. The slides were stained with cresyl violet, and the cysts were counted by a blinded protocol. The number of cysts per gram of original lung tissue was calculated, and the groups were reported as the percentages of saline-treated controls.
The anti-P. carinii value for each compound is expressed as the percent of cysts in the treatment group as compared to the saline control group. Values are also compared to a positive control group consisting of animals treated intravenously with pentamidine.

[3] = test system: Pneumocystis carinii; settings: cited from earlier work; for intravenous activity of diamidines (in words): previously evaluated by a different score method; for mean histological score, IV DOSING: tail vein injection daily for 14 days @ 10 mg/kg, scores range from 0.5 (low infection) to 4.0
[4] = Subjective scale of toxicity and tolerance during treatment in the immunosuppressed rat model; settings: for Toxicity, IV DOSING / Toxicity, ORAL DOSING: subjective scale; for acute toxicity generally noted for diamidines, on intravenous administration: immunosuppressed rat model
Description: ^b subjective scale of toxicity. […] In general, the larger the value the more severe the toxicity, with values greater than 2 indicating the death of some animals

[5] = In vitro metabolism by rat tissue homogenate 9000×g supernatants (HPLC); assay type: in vitro ADME; settings: 167 μM substrate plus cofactor solution, 37EC, 10 minutes; FIG. 1
Description: In vitro metabolism of diamidoximes 1, 3, 5, and 7 by rat liver homogenate 9000×g supernatants, post-mitochondrial 105,000×g supernatants or microsomal fractions were performed as previously described in B. J. Berger et al., Antimicrob. Agents and Chemotherapy 36, 1825-1831 (1992); B. J. Berger et al., J. Pharmacol. Experimental Therapeutics 256, 883-89 (1991). Briefly, adult male Sprague-Dawley rats, barrier raised, (Hilltop Laboratories, Scottsdale, Pa.) animals were given water and rat chow (Agway, Syracuse, N.Y.) ad libitum. The rats were euthanized by decapitation, the livers removed immediately, rinsed with 50 mM potassium phosphate buffer, pH 7.4, and placed on ice. All subsequent steps were performed at 4EC. The livers were minced, homogenized, and 9000×g supernatants, 105,000×g or 105,000×g microsomal pellets prepared. Each fraction was assayed for protein content as described in M. M. Bradford, Anal. Biochem. 72, 248-254 (1976) and stored at −80EC. Fractions from the rat kidneys, lungs, hearts and brains were prepared similarly.
Reaction mixtures consisted of 1.5 mL 50 mM potassium phosphate buffer, pH 7.4, 0.5 mL cofactor solution (2 mg/mL NADPH, 1.6 mg/mL MgCl2, 1.04 mg/mL glucose-6-phosphate and 2 units/mL glucose-6-phosphate dehydrogenase in 50 mM potassium phosphate buffer pH 7.4), 0.5 mL tissue homogenate and 0.5 mL of the appropriate diamidoxime substrate at a concentration of 167 μM. Reactions were started by adding substrate, then mixtures were incubated at 37EC in a shaking water bath for times shown in the figures. Reactions were terminated by extracting over C18 cartridges and assaying as described below.
(§1) Samples were extracted using solid phase extraction and assayed using high performance liquid chromatography (HPLC) by methods similar to those previously described in Berger et al. (1992) and Berger et al., (1991), supra. Briefly, samples spiked with 2,5-bis[4-(N-isopropylamidino)phenyl]furan dihydrochloride as the internal standard (IS) were extracted over activated C18 Bond Elut cartridges (Varian Associates, Sunnydale, Calif.), washed with water, 100% acetonitrile, then eluted with 75% acetonitrile/25% water containing 15 mm triethylamine and 35 mM acetic acid. The diamidoxime substrates elute in the 100% acetonitrile phase, while mono-amidine and diamidine products elute in the acetonitrile/water mixture containing triethylamine and acetic acid. Elutes were evaporated to dryness at 40EC under a gentle stream of nitrogen and resuspended in HPLC grade water.
Compounds were resolved using a Hewlett-Packard (Avondale, Pa.) model 1090 HPLC equipped with a HP 1050 variable wavelength detector set at 265 nm, a 4.6×250 mm Zorbax RX diisopropyl C8 column (Mac-Mod, Chadd's Ford, PA) maintained at 40EC and a Vectra 486/66U computer with HP Chemstations software. The mobile phase consisted of 15 mM triethylamine and 35 mM acetic acid in HPLC grade water for pump A, and 15 mM triethylamine and 35 mM acetic acid in 75% acetonitrile in water for pump B. The solvent flow rate was 1.5 mL/min, and the solvent gradient ran from 0% B to 25% B at 22 min, to 40% B at 25 min, then 90% B at 35 min. All solvents and reagents used for the assays were HPLC grade. Quantities of metabolites formed were calculated, using peak area rations of authentic standard, from standard addition curves generated by spiking standards into tissue homogenates or tissue culture medium.

[6] = test system: BRL 3A hepatocytes; assay: Metabolism in intact cultured cells (HPLC of culture supernatants); assay type: in vitro ADME; settings: 10 μM substrate, 24 hours, 37EC; extracellular medium assayed; FIG. 4
Description: Metabolic experiments with intact cultured cells were performed using the BRL 3A hepatocyte line, obtained from the UNC-Chapel Hill Lineberger Tissue Culture Facility. Cells were routinely cultured in Costar (Cambridge, Mass.) 25 cm^2 of tissue culture flasks at 37EC under moist 5% CO2 and 95% air in Ham's F-12 medium (Gibco, Gaithersburg, Md.) containing 5% fetal bovine serum (HyClone Laboratories Inc., Logan, Utah). Confluent cultures were treated with 0.25% trypsin solution (Sigma Chemical Co., ST. Louis Mo.), then approximately 2×10^5 cells/well subcultured into Costar 6-well tissue culture chambers and the cells allowed to grow to confluency. Ten mL fresh medium was added to each culture well and incubations were started by adding 100 μL amidoxime solution (prepared in sterile water) to a final concentration of 10 μM. Cell cultures were incubated at 37EC under moist 5% CO2 and 95% air for 24 hours, then aliquots of culture supernatants extracted and assayed for metabolites as described below. Similar metabolic experiments were performed with cultured J774 A.1 mouse monocyte-macrophage cells cultured in DMEM F-12 medium containing 10% fetal bovine serum and H9c2 rat heart myoblast cells cultured in DMEM H medium containing 10% fetal bovine serum.
as §1
Compounds were resolved using a Hewlett-Packard (Avondale, Pa.) model 1090 HPLC equipped with a HP 1050 variable wavelength detector set at 265 nm, a 4.6×250 mm Zorbax RX diisopropyl C8 column (Mac-Mod, Chadd's Ford, PA) maintained at 40EC and a Vectra 486/66U computer with HP Chemstations software. […] Quantities of metabolites formed were calculated, using peak area rations of authentic standard, from standard addition curves generated by spiking standards into tissue homogenates or tissue culture medium.

[7] = 22.0 μmol/kg/day, values greater than 2 indicate death of some animals

COc1cc(C(=N)N)ccc1OCCCOc1ccc(C(=N)N)cc1OC [Compound 8, 1,3-bis(2′-methoxy-4′-amidinophenoxy)propane, reference compound]
observed acute toxicity after single intravenous injection ([1]; 10 μmol/kg): perceptible hypoactivity
time after injection to recovery / persistence of symptoms [1]: > 15 min
relative acute toxicity among the diamidines [1]: even more acutely toxic than the other two diamidines tested
anti-P. carinii activity when given orally (in words) [2]: significant oral activity
intravenous activity of diamidines (in words) [3]: previously shown to have intravenous activity

NC(=NO)c1ccc(-c2ccc(-c3ccc(C(N)=NO)cc3)o2)cc1 [Compound 10, 2,5-bis-[4-amidinophenyl]furanbis-amidoxime]
Toxicity, IV DOSING ([4]; 0.3 μmol/kg/day): 0
Toxicity, IV DOSING ([4]; 2.7 μmol/kg/day): 0
Toxicity, IV DOSING ([4]; 5.5 μmol/kg/day): +1
Toxicity, IV DOSING ([4]; 11.0 μmol/kg/day): +1
Toxicity, IV DOSING [4, 7]: +1
inflammation and necrosis at the injection site ([4]; intravenous, 5.5 μmol/day): considerable inflammation and necrosis of the tail vein at the injection site
acute toxicity generally noted for diamidines, on intravenous administration ([4]; intravenous): absent
Toxicity, ORAL DOSING ([4]; 5.5 μmol/kg/day): 0
Toxicity, ORAL DOSING ([4]; 11.0 μmol/kg/day): 0
Toxicity, ORAL DOSING ([4]; 33.0 μmol/kg/day): 0
activity on oral administration, furan series (in words) ([2]; immunosuppressed rat model): effective
drug uptake on oral dosage (suggested by the values for the cyst counts) ([2]; rat, in vivo, po): superior to that of the parent compound 9

NC(=NO)c1ccc(OCCCCOc2ccc(C(N)=NO)cc2)cc1.O=C(O)/C=C\C(=O)O.O=C(O)/C=C\C(=O)O [Compound 3, 1,4-bis(4′-(N-hydroxyamidino)phenoxy)butanedi-maleinate]
metabolism by rat liver homogenate 9000×g supernatants [5]: metabolized similarly
anti-P. carinii activity / mean cyst counts when given intravenously (in words) ([2]; Formula I amidoximes, intravenous): significantly reduced compared to saline controls
anti-P. carinii activity when given orally (in words) [2]: most active
% saline, ORAL DOSING ([2]; Table 2): 1.43 % saline
% saline, IV DOSING ([2]; Table 2): 0.12 % saline
metabolism in intact BRL 3A hepatocytes [6]: metabolized predominantly to the corresponding diamidine

N=C(N)c1ccc(OCCCOc2ccc(C(=N)N)cc2)cc1 [Compound 6, 1,3-bis(4′-amidinophenoxy)propane]
relative acute toxicity among the diamidines [1]: less acutely toxic than pentamidine
anti-P. carinii activity when given orally (in words) [2]: reduced or no anti-P. carinii activity
intravenous activity of diamidines (in words) [3]: previously shown to have intravenous activity
mean histological score, IV DOSING [3]: 0.9

N=C(N)c1ccc(OCCCCOc2ccc(C(=N)N)cc2)cc1 [Compound 4, 1,4-bis(4′-amidinophenoxy)butane, reference compound]
anti-P. carinii activity when given orally (in words) [2]: reduced or no anti-P. carinii activity
% saline, ORAL DOSING ([2]; Table 3): 46.03 % saline
intravenous activity of diamidines (in words) [3]: previously shown to have intravenous activity
mean histological score, IV DOSING [3]: 0.5

CCON=C(N)c1ccc(-c2ccc(-c3ccc(C(N)=NOCC)cc3)o2)cc1 [Compound 12, 2,5-bis-[4-amidinophenyl]furanbis-O-ethylamidoxime]
Toxicity, IV DOSING [4, 7]: +1
Toxicity, ORAL DOSING ([4]; 33.0 μmol/kg/day): 0

N=C(N)c1ccc(OCCCCCOc2ccc(C(=N)N)cc2)cc1 [Compound 2, 1,5-bis(4′-amidinophenoxy)pentane, reference compound]
observed acute toxicity after single intravenous injection ([1]; 20 μmol/kg): appeared hypotensive, with rapid paling of extremities, hypoactivity and dyspnea, which progressed to slight cyanosis of extremities
observed acute toxicity after single intravenous injection ([1]; 40 μmol/kg): immediate sever hind limb contractions, increased salivation, dyspnea, initial paling of extremities which progressed to marked cyanosis and profound hypoactivity
time after injection to recovery / persistence of symptoms [1]: ≤ 5 min
% saline, ORAL DOSING ([2]; Table 2): 133.09 % saline
% saline, IV DOSING ([2]; Table 2): 0.87 % saline
% saline, ORAL DOSING ([2]; Table 3): 133.09 % saline
mean histological score, IV DOSING [3]: 1.1

CON=C(N)c1ccc(-c2ccc(-c3ccc(C(N)=NOC)cc3)o2)cc1 [Compound 11, 2,5-bis-[4-amidinophenyl]furanbis-O-methylamidoxime]
Toxicity, IV DOSING [4, 7]: 0
tolerance at the injection site ([4]; intravenous, 22.0 μmol/kg/day): well-tolerated
acute toxicity generally noted for diamidines, on intravenous administration ([4]; intravenous): absent
Toxicity, ORAL DOSING ([4]; 5.5 μmol/kg/day): 0
Toxicity, ORAL DOSING ([4]; 11.0 μmol/kg/day): 0
Toxicity, ORAL DOSING ([4]; 22.0 μmol/kg/day): 0
Toxicity, ORAL DOSING ([4]; 33.0 μmol/kg/day): 0
activity on oral administration, furan series (in words) ([2]; immunosuppressed rat model): effective; also recorded: more effective than the bis-amidoxime 10
drug uptake on oral dosage (suggested by the values for the cyst counts) ([2]; oral dosage, immunosuppressed rat model): superior to that of the parent compound 9
